“And” between values parts separate entries of the source, which are not always exact repeats. Equal entries are not always repeated. Where two headings read alike, the source gives them in different places.
How the values were obtained:
[1] = target: T1, FRB/FKBP1A interaction (Homo sapiens, UniProt P42345+P62942); assay: NanoBiT assay, rapamycin-mediated FRB/FKBP1A interaction; format: cell-based; conditions: 2 h, expt 1-4
[2] = target: T1, FRB/FKBP1A interaction; parameters: method as in previous study; conditions: replicates 1-4, ref previous study, cited from earlier work; for ELISA signal (Fig. EV1B): IN/IC format; for ELISA_CIC signal (Fig. EV1C): NIN/IC format
[3] = target: T1, FRB/FKBP1A interaction; assay: SIMPL2 assay, rapamycin-mediated FRB/FKBP1A interaction; conditions: for SIMPL2 signal (Fig. EV1B): IN/IC format, replicates 1-4; for SIMPL2(%) (Fig. EV1C): NIN/IC format, replicates 1-3; for SIMPL2 signal (Fig. 1D source data): 2 h, expt 1-4

T1 sequence (P42345 2012-2144 limits assumed): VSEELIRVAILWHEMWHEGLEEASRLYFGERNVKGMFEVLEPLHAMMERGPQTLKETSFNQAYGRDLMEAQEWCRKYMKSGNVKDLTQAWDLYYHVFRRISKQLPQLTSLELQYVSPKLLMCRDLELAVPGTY
T1 sequence (P62942 whole entry): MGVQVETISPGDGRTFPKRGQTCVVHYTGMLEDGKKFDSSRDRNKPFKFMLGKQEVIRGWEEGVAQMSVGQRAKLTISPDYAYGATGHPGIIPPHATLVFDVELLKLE

CO[C@H]1C[C@@H]2CC[C@@H](C)[C@@](O)(O2)C(=O)C(=O)N2CCCC[C@H]2C(=O)O[C@H]([C@H](C)C[C@@H]2CC[C@@H](O)[C@H](OC)C2)CC(=O)[C@H](C)/C=C(\C)[C@@H](O)[C@@H](OC)C(=O)[C@H](C)C[C@H](C)/C=C/C=C/C=C/1C [rapamycin, Rapamycin]
NanoBiT signal (Fig. 1D source data) ([1]; Rapa 0.004115 uM): 43.0075 and 49.8338 and 39.8143 and 26.5473
NanoBiT signal (Fig. 1D source data) ([1]; Rapa 0.037037 uM): 98.7034 and 104.835 and 107.555 and 86.8025
NanoBiT signal (Fig. 1D source data) ([1]; Rapa 0.111111 uM): 98.0138 and 85.7365 and 105.867 and 81.894
NanoBiT signal (Fig. 1D source data) ([1]; Rapa 0.333333 uM): 102.818 and 83.4071 and 80.4272 and 114.561
NanoBiT signal (Fig. 1D source data) ([1]; Rapa 1 uM): 95.0191 and 104.766 and 93.7327 and 91.3484
ELISA signal (Fig. EV1B) ([2]; Rapa 0.316 nM): 14.411 and 5.166 and 5.566 and 4.9879
ELISA signal (Fig. EV1B) ([2]; Rapa 1 nM): 5.323 and 5.028 and 5.963 and 6.1023
ELISA signal (Fig. EV1B) ([2]; Rapa 3.162 nM): 8.457 and 7.647 and 8.056 and 8.736
ELISA signal (Fig. EV1B) ([2]; Rapa 10 nM): 15.9974 and 15.1146 and 16.574 and 16.0467
ELISA signal (Fig. EV1B) ([2]; Rapa 31.623 nM): 37.8238 and 37.9493 and 40.1437 and 41.1072
ELISA signal (Fig. EV1B) ([2]; Rapa 100 nM): 80.3098 and 67.0371 and 79.2492 and 77.5358
ELISA signal (Fig. EV1B) ([2]; Rapa 316.228 nM): 106.072 and 95.5962 and 92.0797 and 90.9967
ELISA signal (Fig. EV1B) ([2]; Rapa 1000 nM): 102.194 and 105.027 and 90.2049 and 93.6363
ELISA_CIC signal (Fig. EV1C) ([2]; Rapa 0.3 nM): 3.444 and 2.886 and 2.936 and 2.873
ELISA_CIC signal (Fig. EV1C) ([2]; Rapa 1 nM): 3.091 and 2.372 and 3.062 and 3.035
ELISA_CIC signal (Fig. EV1C) ([2]; Rapa 3 nM): 3.502 and 3.836 and 3.666 and 4.333
ELISA_CIC signal (Fig. EV1C) ([2]; Rapa 10 nM): 6.943 and 6.073 and 6.559 and 6.143
ELISA_CIC signal (Fig. EV1C) ([2]; Rapa 30 nM): 20.4969 and 16.4946 and 19.9923 and 21.7284
ELISA_CIC signal (Fig. EV1C) ([2]; Rapa 100 nM): 72.9918 and 58.0659 and 78.6932 and 64.2948
ELISA_CIC signal (Fig. EV1C) ([2]; Rapa 300 nM): 105.102 and 112.879 and 88.9461
ELISA_CIC signal (Fig. EV1C) ([2]; Rapa 1000 nM): 95.1776 and 93.559 and 93.0646 and 80.9326
SIMPL2 signal (Fig. EV1B) ([3]; Rapa 0.0508 nM): 1.191 and 2.558 and 1.039 and 2.309
SIMPL2 signal (Fig. EV1B) ([3]; Rapa 0.152 nM): 2.258 and 4.019 and 1.902 and 3.528
SIMPL2 signal (Fig. EV1B) ([3]; Rapa 0.457 nM): 5.806 and 9.209 and 5.031 and 7.8055
SIMPL2 signal (Fig. EV1B) ([3]; Rapa 1.372 nM): 16.8705 and 22.7506 and 15.2406 and 19.2387
SIMPL2 signal (Fig. EV1B) ([3]; Rapa 4.115 nM): 40.6804 and 51.3157 and 39.8638 and 45.1426
SIMPL2 signal (Fig. EV1B) ([3]; Rapa 37.037 nM): 89.8203 and 93.2241 and 91.2356 and 88.6383
SIMPL2 signal (Fig. EV1B) ([3]; Rapa 111.111 nM): 100.397 and 91.658 and 100.471 and 94.6121
SIMPL2 signal (Fig. EV1B) ([3]; Rapa 333.333 nM): 99.7113 and 97.9264 and 105.182 and 96.7419
SIMPL2 signal (Fig. EV1B) ([3]; Rapa 1000 nM): 92.6509 and 96.5256 and 102.635 and 100.443
SIMPL2(%) (Fig. EV1C) ([3]; Rapa 0.00188 nM): 0.8086% (2×) and 0.8386%
SIMPL2(%) (Fig. EV1C) ([3]; Rapa 0.00565 nM): 0.599% and 0.6888% and 0.7487%
SIMPL2(%) (Fig. EV1C) ([3]; Rapa 0.0508 nM): 0.9284% and 1.198% and 0.7188%
SIMPL2(%) (Fig. EV1C) ([3]; Rapa 0.152 nM): 1.108% and 1.6472% and 0.8685%
SIMPL2(%) (Fig. EV1C) ([3]; Rapa 0.457 nM): 4.972% and 3.534% and 2.636%
SIMPL2(%) (Fig. EV1C) ([3]; Rapa 1.372 nM): 23.3303% and 15.2441% and 11.9197%
SIMPL2(%) (Fig. EV1C) ([3]; Rapa 4.115 nM): 44.1749% and 37.1968% and 29.3801%
SIMPL2(%) (Fig. EV1C) ([3]; Rapa 37.037 nM): 91.9736% and 88.0503% and 89.0686%
SIMPL2(%) (Fig. EV1C) ([3]; Rapa 111.111 nM): 100.449% and 91.6442% and 102.935%
SIMPL2(%) (Fig. EV1C) ([3]; Rapa 333.333 nM): 113.267% and 99.5508% and 95.867%
SIMPL2(%) (Fig. EV1C) ([3]; Rapa 1000 nM): 95.5076% and 93.0518% and 96.2564%
SIMPL2 signal (Fig. 1D source data) ([3]; Rapa 0.004115 uM): 47.8958 and 45.8282 and 46.7693 and 41.1245
SIMPL2 signal (Fig. 1D source data) ([3]; Rapa 0.037037 uM): 84.8088 and 98.4637 and 120.48 and 94.9462
SIMPL2 signal (Fig. 1D source data) ([3]; Rapa 0.111111 uM): 73.556 and 88.7889 and 90.3886 and 92.8218
SIMPL2 signal (Fig. 1D source data) ([3]; Rapa 0.333333 uM): 97.7898 and 102.816 and 106.133 and 97.0409
SIMPL2 signal (Fig. 1D source data) ([3]; Rapa 1 uM): 104.171 and 101.443 and 85.3933 and 107.112

— publication PMC11791039, “A split intein and split luciferase-coupled system for detecting protein-protein interactions” (Molecular Systems Biology, 2024)
